≈ marks a conversion by molar mass, not a printed value. Where two headings read alike, the source gives them in different places.
Experiments:
HEK293 = experiment: In vitro inhibition of normal human cells; format: cell-based
HCC1937 = experiment: In vitro human breast cancer cell growth inhibition; format: cell-based
IMR90 = experiment: In vitro inhibition of normal human cells; format: cell-based; conditions: IMR-90
Hep-G2 = experiment: In vitro inhibition of normal human cells; format: cell-based; conditions: HepG2
SUM159 = experiment: In vitro human breast cancer cell growth inhibition; format: cell-based
MDA-MB-436 = experiment: as above; format: cell-based
hNaMNAT-1 = hNaMNAT-1 (Homo sapiens, UniProt Q9HAN9); experiment: Human NAMNAT inhibition in vitro; format: biochemical
Sequence of hNaMNAT-1 (Q9HAN9 whole entry): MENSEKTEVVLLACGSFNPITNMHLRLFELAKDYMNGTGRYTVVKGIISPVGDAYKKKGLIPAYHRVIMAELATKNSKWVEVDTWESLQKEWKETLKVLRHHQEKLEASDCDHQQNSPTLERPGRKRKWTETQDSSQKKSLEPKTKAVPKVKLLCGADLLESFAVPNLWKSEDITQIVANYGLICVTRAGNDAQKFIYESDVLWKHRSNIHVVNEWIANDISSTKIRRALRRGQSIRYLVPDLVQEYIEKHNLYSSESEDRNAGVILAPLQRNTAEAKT

BEAS-23 = experiment: In vitro inhibition of normal human cells; format: cell-based; conditions: read-out: In Vitro Inhibition Normal Human Cells (IC50, μM) BEAS-23
[1] = test system: Bacillus anthracis Sterne; experiment: microbe, parasite or virus in culture; format: cell-based; conditions: for MIC: Bacillus anthracis
S. pneumoniae = experiment: microbe, parasite or virus in culture; format: cell-based; conditions: Streptococcus pneumoniae, read-out: MIC (μg/mL) S. pneumoniae
S. aureus = experiment: microbe, parasite or virus in culture; format: cell-based; conditions: Staphylococcus aureus, read-out: MIC (μg/mL) S. aureus
E. faecalis = experiment: microbe, parasite or virus in culture; format: cell-based; conditions: Enterococcus faecalis, read-out: MIC (μg/mL) E. faecalis
B. anthracis = experiment: microbe, parasite or virus in culture; format: cell-based; conditions: Bacillus anthracis, read-out: MIC (μg/mL) B. anthracis
[2] = In vivo toxicity, maximum tolerated dose; conditions: female, BALB/c, mouse, intraperitoneal
[3] = Pharmacokinetics, plasma concentration after intraperitoneal injection
B. cereus = experiment: microbe, parasite or virus in culture; format: cell-based; conditions: Bacillus cereus, read-out: MIC (μg/mL) B. cereus
E. faecium VRE = experiment: microbe, parasite or virus in culture; format: cell-based; conditions: Enterococcus faecium, read-out: MIC (μg/mL) E. faecium VRE
B. anthracis NADs = B. anthracis NADs (Bacillus anthracis, UniProt Q81RP3); format: biochemical
Sequence of B. anthracis NADs (Q81RP3 whole entry, looked up): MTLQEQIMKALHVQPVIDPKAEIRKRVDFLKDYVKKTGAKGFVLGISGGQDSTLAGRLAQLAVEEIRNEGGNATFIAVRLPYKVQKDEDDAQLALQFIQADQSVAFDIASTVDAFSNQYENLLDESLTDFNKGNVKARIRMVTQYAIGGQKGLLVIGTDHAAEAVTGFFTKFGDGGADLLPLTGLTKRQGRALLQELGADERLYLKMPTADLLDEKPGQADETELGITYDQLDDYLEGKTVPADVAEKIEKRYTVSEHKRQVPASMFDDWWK

S. aureus MRSA = experiment: microbe, parasite or virus in culture; format: cell-based; conditions: Staphylococcus aureus, read-out: MIC (μg/mL) S. aureus MRSA
[4] = HCC1937 cells, read-out: In Vitro Human Breast Cancer Inhibition (IC50, μM) HCC1937
[5] = SUM159 cells, read-out: In Vitro Human Breast Cancer Inhibition (IC50, μM) SUM159
[6] = MDA-MB-436 cells, read-out: In Vitro Human Breast Cancer Inhibition (IC50, μM) MDA-MB-436

Row | Compound | MIC ([1]; read-out: B.a. MIC (μM)) [µM] | IC50 (B. anthracis NADs; read-out: IC50) [µM] | IC50 (B. anthracis NADs; read-out: NADs IC50) [µM] | further results
1 | O=[N+]([O-])c1cc(S(=O)(=O)NCc2ccco2)ccc1NNC(=S)Nc1cccc(C(F)(F)F)c1 [Compound 6034] |  |  |  | IC50 (HEK293): 176 µM; IC50 (HCC1937; [4]): 60 µM; IC50 (IMR90): 148 µM; IC50 (Hep-G2): 90 µM; IC50 (SUM159; [5]): 50 µM; IC50 (MDA-MB-436; [6]): 70 µM; IC50 (hNaMNAT-1): 28 µM; IC50 (BEAS-23): 186 µM
2 | O=C(Nc1ccc(O)cc1)Nc1ccc(S(=O)(=O)Nc2ccc(Cl)c(Cl)c2)cc1 [Compound 6400] |  |  |  | IC50 (HEK293): > 200 µM; IC50 (HCC1937; [4]): 95 µM; IC50 (IMR90): > 200 µM; IC50 (Hep-G2): 112 µM; IC50 (SUM159; [5]): 50 µM; IC50 (MDA-MB-436; [6]): 95 µM; IC50 (hNaMNAT-1): 13 µM; IC50 (BEAS-23): > 200 µM
3 | O=C(Nc1ccc([N+](=O)[O-])cc1)Nc1ccc(S(=O)(=O)Nc2ccc(Cl)c(Cl)c2)cc1 [Compound 5824] | 1.9 (≈ 0.915 µg/mL) | 10 | 10 | activity against B. anthracis (in words) [1]: good activities; MIC (S. pneumoniae): 3.6 µg/mL (≈ 7.48 µM); MIC (S. aureus): 10.8 µg/mL (≈ 22.4 µM); MIC (E. faecalis): 14 µg/mL (≈ 29.1 µM); MIC (B. anthracis): 1.2 µg/mL (≈ 2.49 µM); MTD [2]: 25 mg/kg; time to highest plasma drug concentration ([3]; 25 mg/kg (Bid), second dose 8 hr after first, time after first dose): about 12 hours; time to highest plasma drug concentration ([3]; 25 mg/kg (QD), mouse plasma): 2 h; time to highest plasma drug concentration ([3]; 50 mg/kg (QD), mouse plasma): 2 h; MIC (B. cereus): 0.78 µg/mL (≈ 1.62 µM); MIC (E. faecium VRE): 10.8 µg/mL (≈ 22.4 µM); activity against NADs (in words) (B. anthracis NADs): good activities; MIC (S. aureus MRSA): 5.5 µg/mL (≈ 11.4 µM)
4 | O=C(Nc1ccc(S(=O)(=O)Nc2cccc(C(F)(F)F)c2)cc1)Nc1cccc(Cl)c1 [Compound 5991] |  |  |  | MTD [2]: 10 mg/kg
5 | COc1cccc(NC(=O)Nc2ccc(S(=O)(=O)Nc3ccc(Cl)c(Cl)c3)cc2)c1 [Compound 6325] |  |  |  | MTD [2]: 50 mg/kg
6 | O=C(Nc1ccc(S(=O)(=O)Nc2ccc(Cl)c(Cl)c2)cc1)Nc1ccccc1O [Compound 6399] |  |  |  | IC50 (HEK293): 163 µM; IC50 (HCC1937; [4]): 40 µM; IC50 (IMR90): 181 µM; IC50 (Hep-G2): 84 µM; IC50 (hNaMNAT-1): 19 µM; IC50 (BEAS-23): 93 µM
7 | COc1ccccc1NC(=O)COc1ccc(/C=C(/C#N)c2nc3ccccc3[nH]2)cc1 [Compound 5822] | > 240 | 107 | 178 ± 102 | 
8 | Nc1ccc(NS(=O)(=O)c2ccc(NC(=O)Nc3ccc(Cl)c(Cl)c3)cc2)cc1 [Compound 6010] |  |  |  | IC50 (HEK293): > 200 µM; IC50 (HCC1937; [4]): 20 µM; IC50 (IMR90): > 200 µM; IC50 (Hep-G2): > 200 µM; IC50 (SUM159; [5]): 10 µM; IC50 (MDA-MB-436; [6]): 25 µM; IC50 (hNaMNAT-1): > 600 µM; IC50 (BEAS-23): > 200 µM
9 | O=C(Nc1ccc(/N=N/c2ccccc2)cc1)c1ccc([N+](=O)[O-])cc1 [Compound 5792] | > 240 | 76 | 76 ± 13 | 
10 | O=C(Nc1ccc([N+](=O)[O-])cc1)c1ccc(-c2nnc(-c3ccccc3)o2)cc1 [Compound 5605] | > 259 | 146 | 146 ± 0.2 | MIC ([1]; 5 h, read-out: MIC100 (μM)): > 259 µM
11 | O=C(Nc1ccc(S(=O)(=O)Nc2ccc(Cl)c(Cl)c2)cc1)Nc1cccc([N+](=O)[O-])c1 [Compound 6333] |  |  |  | MTD [2]: 250 mg/kg
12 | O=C(Nc1cccc(/N=C/c2cc([N+](=O)[O-])ccc2O)c1)c1ccc(Cl)cc1Cl [Compound 5691] | > 232 | 106 | 106 ± 2 | 
13 | O=C(Nc1cccc(/N=C/c2cc([N+](=O)[O-])ccc2O)c1)c1cccc(Br)c1 [Compound 5684] | > 227 | 99.5 | 99 ± 12 | 
14 | CCOc1ccc(NS(=O)(=O)c2ccc(NC(=O)CCC(=O)c3ccccc3)cc2)cc1 [Compound 6484] |  |  |  | MTD [2]: > 500 mg/kg
15 | COc1ccccc1NC(=O)NC(=O)c1ccc(-c2csnn2)cc1 [Compound 5737] | > 240 | 235 | 235 ± 71 | 
16 | COc1ccc(NC(=O)Nc2cccc(NC(=O)Nc3ccc(OC)cc3)c2F)cc1 [Compound 5707] | > 240 | 253 | 253 ± 65 | 
17 | O=C(Nc1cccc(Oc2ccc3c(c2)C(=O)N(c2ccccc2)C3=O)c1)c1cccc([N+](=O)[O-])c1 [Compound 5799] | > 240 | 175 | 202 ± 38 | 
18 | O=C(Nc1ccccc1)Nc1ccc(NC(=O)c2ccc(NC(=O)Nc3ccccc3)cc2)cc1 [Compound 5793] | > 240 | 78.8 | 79 ± 38 | 
19 | CCOC(=O)C1=C(Nc2cccc3ccccc23)S/C(=C\c2ccc([N+](=O)[O-])cc2)C1=O [Compound 5597] | > 224 | 86.1 | 86 ± 33 | 
20 | O=C1C=C(Nc2ccccc2C(=O)O)C(=O)C=C1Nc1ccccc1C(=O)O [Compound 5589] | > 264 | 137 | 118 ± 67 | 
21 | O=C(Nc1ccc(S(=O)(=O)Nc2ccccc2C(F)(F)F)cc1)Nc1cccc([N+](=O)[O-])c1 [Compound 6572] |  |  |  | IC50 (HCC1937; HCC1937, read-out: In Vitro Human Breast Cancer Inhibition (IC50, μM) HCC1937): 35 µM; IC50 (SUM159; SUM159, read-out: In Vitro Human Breast Cancer Inhibition (IC50, μM) SUM159): 10 µM; IC50 (MDA-MB-436; MDA-MB-436, read-out: In Vitro Human Breast Cancer Inhibition (IC50, μM) MDA-MB-436): 35 µM; IC50 (hNaMNAT-1): > 600 µM
22 | O=[N+]([O-])c1ccc(O)c(/C=N/c2cccc(O)c2)c1 [Compound 5660] | > 387 | 22.5 | 22.5 | 
23 | COc1ccc(NC(=O)Nc2ccc(Oc3ncnc4cc(Cl)ccc34)nc2)cc1OC1CCCC1 [Compound 5764] | > 240 | 97.2 | 97 ± 55 | 
24 | O=C(NC(=S)Nc1cc(-c2nc3ccccc3[nH]2)ccc1Cl)c1ccccc1[N+](=O)[O-] [Compound 5831] | > 240 | 243 | 243 ± 38 | 
25 | O=C(Cn1cc(/C=C/c2[nH]c(=O)[nH]c(=O)c2[N+](=O)[O-])c2ccccc21)Nc1ccc(F)cc1 [Compound 5615] |  | 55.4 | 55.4 | MIC ([1]; 5 h, read-out: MIC100 (μM)): > 223 µM
26 | Nc1ncnc(Nc2ccc(Cl)cc2C(=O)c2ccccc2Cl)c1[N+](=O)[O-] [Compound 5616] | > 247 | 208 | 231 ± 36 | 
27 | COc1cccc(NC(=O)Nc2nnc(COc3ccc([N+](=O)[O-])cc3)s2)c1 [Compound 5807] | > 240 | 124 | 124 ± 5 | 
